In publication PMC5147771, “High-Resolution Genetics Identifies the Lipid Transfer Protein Sec14p as Target for Antifungal Ergolines” (PLoS Genetics, 2016):
Entries after “also recorded” stand apart in the source; their conditions may differ. Like-named read-outs stand apart in the source and are kept apart here.

Key:
C. neoformans ATCC 90113 = assay: C. neoformans growth inhibition (CLSI M27-A3 broth microdilution); assay type: cell-based; conditions: for MIC: Cryptococcus neoformans, ATCC90113, 72 h
Text: (§1) Sec14p is reported to be essential for virulence as well as for growth in C. neoformans. The S. cerevisiae and C. neoformans proteins show 53% similarity by pair-wise alignment with higher conservation of the residues in the lipid-binding pocket (S2 Fig). Furthermore, three of the four sites identified to be critical for NGx04 sensitivity, are conserved (S2 Fig). In combination with the current high unmet medical need related to Cryptococcus infections we prioritized testing of NGx04 and 18 related ergoline scaffold analogs against this pathogen. Two clinical isolates of C. neoformans (ATCC 36556 and ATCC 90113) were plated in triplicates on increasing drug concentrations and MIC-2 (50% inhibition) and MIC-0 (no visible fungal growth) concentrations were scored after 72 hrs. (Fig 5).
(§2) C. neoformans strains ATCC 36556, a lung isolate, and ATCC 90113, a cerebrospinal fluid isolate, were purchased from ATCC, Manassas, VA (USA). BPY22 was obtained from.
(§3) Antifungal susceptibility testing was conducted according to the Clinical and Laboratory Standards Institute (CLSI) guidelines for broth microdilution assay M27-A3. Testing was performed in RPMI-1640 (HyClone) with 2.05 mM glutamine, phenol red, without bicarbonate and buffered with 0.165 mol/l 3-(N-morpholino) propanesulfonic acid (MOPS). The medium was adjusted to pH 7.0 and sterilized with a 0.2 μm filter. Two endpoints were recorded: MIC-0 (complete inhibition with no visible fungal growth) and MIC-2 (prominent inhibition corresponding to >50% growth reduction).

C. neoformans ATCC 36556 = assay: as above; assay type: cell-based; conditions: for MIC: Cryptococcus neoformans, ATCC36556, 72 h; for C. neoformans growth inhibition (in words): clinical isolates ATCC 36556 and ATCC 90113, tested dose range
Text: as §1, §2, §3

[1] = 50% inhibition, 72 h, triplicate values printed singly, read-out: ATCC90113 MIC-2
[2] = no visible fungal growth, 72 h, triplicate values printed singly, read-out: ATCC90113 MIC-0
[3] = 50% inhibition, 72 h, triplicate values printed singly
[4] = 50% inhibition, 72 h, triplicate values printed singly, read-out: ATCC36556 MIC-2
[5] = no visible fungal growth, 72 h, triplicate values printed singly, read-out: ATCC36556 MIC-0
[6] = no visible fungal growth, 72 h, triplicate values printed singly

## C[C@@H]1[C@H](O)[C@@H](C)/C=C/C=C/C=C/C=C/C=C/C=C/C=C/[C@H](O[C@@H]2O[C@H](C)[C@@H](O)[C@H](N)[C@@H]2O)C[C@@H]2O[C@](O)(C[C@@H](O)C[C@@H](O)[C@H](O)CC[C@@H](O)C[C@@H](O)CC(=O)O[C@H]1C)C[C@H](O)[C@H]2C(=O)O [Amphotericin B, reference compound]
C. neoformans ATCC 90113; [1]
  MIC: 0.8 µg/mL
C. neoformans ATCC 90113; [2]
  MIC: 1.6 µg/mL
C. neoformans ATCC 36556; [3]
  ATCC36556 MIC-2: 0.1 µg/mL
C. neoformans ATCC 36556; [4]
  MIC: 0.2 µg/mL
C. neoformans ATCC 36556; [5]
  MIC: 0.2 µg/mL
C. neoformans ATCC 36556; [6]
  ATCC36556 MIC-0: 0.4 µg/mL

## CN1C[C@H](C(=O)O)C[C@@H]2c3cccc4c3[C@H](C[C@H]21)CN4C(=O)OC(C)(C)C [NGx01]
C. neoformans ATCC 90113; read-out: ATCC90113 MIC-0
  MIC: > 50 µg/mL
C. neoformans ATCC 90113; read-out: ATCC90113 MIC-2
  MIC: > 50 µg/mL
C. neoformans ATCC 36556; read-out: ATCC36556 MIC-0
  MIC: > 50 µg/mL
C. neoformans ATCC 36556; read-out: ATCC36556 MIC-2
  MIC: > 50 µg/mL

## COC(=O)[C@@H]1C[C@@H]2c3cc(O)cc4c3[C@H](C[C@H]2N(C)C1)CN4C(C)=O [NGx02]
C. neoformans ATCC 90113; [1]
  MIC: > 50 µg/mL
C. neoformans ATCC 90113; [2]
  MIC: > 50 µg/mL
C. neoformans ATCC 36556; [4]
  MIC: > 50 µg/mL
C. neoformans ATCC 36556; [5]
  MIC: > 50 µg/mL

## CN1C[C@H](C(=O)Nc2cccc(C(F)(F)F)c2)C[C@@H]2c3cccc4c3[C@H](C[C@H]21)CN4C(=O)OC(C)(C)C [NGx03]
C. neoformans ATCC 90113; [1]
  MIC: > 50 µg/mL
C. neoformans ATCC 90113; [2]
  MIC: > 50 µg/mL
C. neoformans ATCC 36556; [3]
  ATCC36556 MIC-2: 3.1 µg/mL
C. neoformans ATCC 36556; [4]
  MIC: 3.13 µg/mL
C. neoformans ATCC 36556; [5]
  MIC: 6.25 µg/mL
C. neoformans ATCC 36556
  C. neoformans growth inhibition (in words): inhibit C. neoformans growth; also recorded: scored anti-fungal activity
C. neoformans ATCC 36556; [6]
  ATCC36556 MIC-0: 6.3 µg/mL

## COC(=O)[C@@H]1C[C@@H]2c3cc(F)cc4c3[C@H](C[C@H]2N(C)C1)CN4C(C)=O [NGx06]
C. neoformans ATCC 90113; [1]
  MIC: > 50 µg/mL
C. neoformans ATCC 90113; [2]
  MIC: > 50 µg/mL
C. neoformans ATCC 36556; [4]
  MIC: 50 µg/mL
C. neoformans ATCC 36556; [5]
  MIC: > 50 µg/mL

## CN1C[C@H](C(=O)Nc2ccccc2)C[C@@H]2c3c(O)ccc4c3[C@H](C[C@H]21)CN4C(=O)OC(C)(C)C [NGx07]
C. neoformans ATCC 90113; [1]
  MIC: 13 µg/mL
C. neoformans ATCC 90113; [2]
  MIC: > 50 µg/mL
C. neoformans ATCC 36556; [4]
  MIC: 6.3 µg/mL
C. neoformans ATCC 36556; [5]
  MIC: > 50 µg/mL
C. neoformans ATCC 36556
  C. neoformans growth inhibition (in words): inhibit C. neoformans growth; also recorded: scored anti-fungal activity

## COC(=O)[C@@H]1C[C@@H]2c3cc(OCc4ccccc4)cc4c3[C@H](C[C@H]2N(C)C1)CN4C(C)=O [NGx08]
C. neoformans ATCC 90113; [1]
  MIC: > 50 µg/mL
C. neoformans ATCC 90113; [2]
  MIC: > 50 µg/mL
C. neoformans ATCC 36556; [3]
  ATCC36556 MIC-2: 25 µg/mL
C. neoformans ATCC 36556; [4]
  MIC: 50 µg/mL
C. neoformans ATCC 36556; [5]
  MIC: > 50 µg/mL

## COC(=O)[C@@H]1C[C@@H]2c3cc([N+](=O)[O-])cc4c3[C@H](C[C@H]2N(C)C1)CN4C(=O)OCC(Cl)(Cl)Cl [NGx09]
C. neoformans ATCC 90113; [2]
  MIC: > 50 µg/mL
C. neoformans ATCC 36556; [5]
  MIC: > 50 µg/mL
C. neoformans ATCC 36556
  C. neoformans growth inhibition (in words): inhibit C. neoformans growth

## COC(=O)[C@@H]1C[C@@H]2c3cc(N)cc4c3[C@H](C[C@H]2N(C)C1)CN4C(C)=O [NGx10]
C. neoformans ATCC 90113; [1]
  MIC: > 50 µg/mL
C. neoformans ATCC 90113; [2]
  MIC: > 50 µg/mL
C. neoformans ATCC 36556; [4]
  MIC: 25 µg/mL
C. neoformans ATCC 36556; [5]
  MIC: > 50 µg/mL

## COC(=O)[C@@H]1C[C@@H]2c3cc([N+](=O)[O-])cc4c3[C@H](C[C@H]2N(C)C1)CN4C(C)=O [NGx11]
C. neoformans ATCC 90113; [1]
  MIC: > 50 µg/mL
C. neoformans ATCC 90113; [2]
  MIC: > 50 µg/mL
C. neoformans ATCC 36556; [4]
  MIC: 25 µg/mL
C. neoformans ATCC 36556; [5]
  MIC: > 50 µg/mL

## COC(=O)C1CC2c3cc(O)cc4c3C(CC2N(C)C1)CN4C(C)=O (centres unmarked) [NGx12]
C. neoformans ATCC 90113; [1]
  MIC: > 50 µg/mL
C. neoformans ATCC 90113; [2]
  MIC: > 50 µg/mL
C. neoformans ATCC 36556; [3]
  ATCC36556 MIC-2: 50 µg/mL
C. neoformans ATCC 36556; [4]
  MIC: 25 µg/mL
C. neoformans ATCC 36556; [5]
  MIC: > 50 µg/mL

## COC(=O)[C@@H]1C[C@@H]2c3cc([N+](=O)[O-])cc4c3[C@@H](CN4)C[C@H]2N(C)C1 [NGx14]
C. neoformans ATCC 90113; [1]
  MIC: > 50 µg/mL
C. neoformans ATCC 90113; [2]
  MIC: > 50 µg/mL
C. neoformans ATCC 36556; [4]
  MIC: 50 µg/mL
C. neoformans ATCC 36556; [5]
  MIC: > 50 µg/mL

## COC(=O)C1CC2c3cccc4c3C(CC2N(C(C)C)C1)CN4C(=O)OC(C)(C)C (centres unmarked) [NGx15]
C. neoformans ATCC 90113; [1]
  MIC: > 50 µg/mL
C. neoformans ATCC 90113; [2]
  MIC: > 50 µg/mL
C. neoformans ATCC 36556; [4]
  MIC: > 50 µg/mL
C. neoformans ATCC 36556; [5]
  MIC: > 50 µg/mL

## COC(=O)[C@@H]1C[C@@H]2c3cccc4c3[C@H](C[C@H]2N(C)C1)CN4C(=O)OCC(Cl)(Cl)Cl [NGx16]
C. neoformans ATCC 90113; [1]
  MIC: 13 µg/mL
C. neoformans ATCC 90113; [2]
  MIC: 50 µg/mL
C. neoformans ATCC 90113; [6]
  ATCC90113 MIC-0: > 50 µg/mL
C. neoformans ATCC 36556; [4]
  MIC: 13 µg/mL
C. neoformans ATCC 36556; [5]
  MIC: 50 µg/mL
C. neoformans ATCC 36556
  C. neoformans growth inhibition (in words): inhibit C. neoformans growth
C. neoformans ATCC 36556; [6]
  ATCC36556 MIC-0: > 50 µg/mL

## COC(=O)C1CC2c3cccc4c3C(CC2N(C)C1)CN4C=O (centres unmarked) [NGx17]
C. neoformans ATCC 90113; [1]
  MIC: > 50 µg/mL
C. neoformans ATCC 90113; [2]
  MIC: > 50 µg/mL
C. neoformans ATCC 36556; [3]
  ATCC36556 MIC-2: > 50 µg/mL
C. neoformans ATCC 36556; [4]
  MIC: 50 µg/mL
C. neoformans ATCC 36556; [5]
  MIC: > 50 µg/mL

## CN1CC(C(=O)O)CC2c3cccc4c3C(CC21)CN4C(=O)OCc1ccccc1 (centres unmarked) [NGx18]
C. neoformans ATCC 90113; [1]
  MIC: > 50 µg/mL
C. neoformans ATCC 90113; [2]
  MIC: > 50 µg/mL
C. neoformans ATCC 36556; [4]
  MIC: > 50 µg/mL
C. neoformans ATCC 36556; [5]
  MIC: > 50 µg/mL

## COC(=O)[C@@H]1C[C@@H]2c3c([N+](=O)[O-])ccc4c3[C@H](C[C@H]2N(C)C1)CN4C(=O)OCC(Cl)(Cl)Cl [NGx19]
C. neoformans ATCC 90113; [3]
  ATCC90113 MIC-2: 6.3 µg/mL
C. neoformans ATCC 90113; [1]
  MIC: 6.25 µg/mL
C. neoformans ATCC 90113; [2]
  MIC: > 50 µg/mL
C. neoformans ATCC 36556; [3]
  ATCC36556 MIC-2: 13 µg/mL
C. neoformans ATCC 36556; [4]
  MIC: 12.5 µg/mL
C. neoformans ATCC 36556; [5]
  MIC: 50 µg/mL
C. neoformans ATCC 36556
  C. neoformans growth inhibition (in words): inhibit C. neoformans growth
C. neoformans ATCC 36556; [6]
  ATCC36556 MIC-0: 25 µg/mL
